Measured values reported in EPA's ToxRefDB 2.

Legend:
dog [1] = conditions: Chronic toxicity, beagle, Oral, Feed, dose end: 52 week, group: systemic
rat [2] = conditions: Carcinogenicity, sprague dawley, Oral, Feed, dose end: 104 week, group: systemic
mouse [3] = conditions: Carcinogenicity; cd1; Oral; [Not Specified]; dose end: 24 month; group: systemic; systemic / in life observation / body weight / body weight gain
rat [4] = conditions: Subchronic oral toxicity in rodents, sprague dawley, Feed, dose end: 95 day, group: systemic
dog [5] = conditions: Subchronic oral toxicity in nonrodent, beagle, Feed, dose end: 13 week, group: systemic, systemic / clinical chemistry / alkaline phosphatase (alp/alk) / alkaline phosphatase (alp/alk) + systemic / organ weight / prostate / …
rat [6] = conditions: Chronic toxicity; sprague dawley; Oral; Feed; dose end: 104 week; group: systemic; systemic / in life observation / body weight / body weight + systemic / in life observation / body weight / body weight gain + systemic / …
rabbit [7] = conditions: Prenatal developmental toxicity study, new zealand white, Oral, Gavage/Intubation, dose end: 18 GD
rat [8] = conditions: Prenatal developmental toxicity study, sprague dawley, Oral, Gavage/Intubation, dose end: 15 GD
rat [9] = conditions: Subchronic dermal toxicity, sprague dawley, Topical, dose end: 91 day, group: systemic
rabbit [10] = conditions: Prenatal developmental toxicity study, new zealand white, Oral, Gavage/Intubation, dose end: 18 GD; remark: listed apart in the source
rat [11] = conditions: Sub-acute dermal toxicity, sprague dawley, Topical, dose end: 21 day, group: systemic
rat [12] = conditions: Prenatal developmental toxicity study, sprague dawley, Oral, Gavage/Intubation, dose end: 15 GD; remark: listed apart in the source
dog [13] = conditions: Chronic toxicity, beagle, Oral, Capsule, dose end: 52 week, group: systemic
mouse [14] = conditions: Carcinogenicity, b6c3f1, Oral, [Not Specified], dose end: 104 week, group: systemic
rat [15] = conditions: Multigenerational reproductive toxicity study, other, Oral, Feed, dose end: 2 generation
rat [16] = conditions: Combined chronic toxicity/carcinogenicity; fischer; Oral; Feed; dose end: 104 week; group: systemic; systemic / in life observation / clinical signs / body cold to touch + systemic / in life observation / clinical signs / emaciation + …
mouse [17] = conditions: Subchronic oral toxicity in rodents, b6c3f1, Feed, dose end: 13 week, group: systemic
dog [18] = conditions: Subchronic oral toxicity in nonrodent, beagle, Capsule, dose end: 13 week, group: systemic, systemic / in life observation / clinical signs / salivation + systemic / pathology microscopic / liver / proliferation
rat [19] = conditions: Subchronic oral toxicity in rodents, fischer, Feed, dose end: 13 week, group: systemic
[20] = systemic / organ weight / prostate / absolute + systemic / organ weight / prostate / relative to body weight + systemic / clinical chemistry…
[21] = systemic / in life observation / body weight / body weight + systemic / in life observation / body weight / body weight gain
[22] = systemic / in life observation / body weight / body weight + systemic / in life observation / body weight / body weight gain + systemic / in…
[23] = systemic / pathology microscopic / liver / vacuolization
[24] = systemic / pathology microscopic / liver / vacuolization + systemic / hematology / erythrocyte (rbc) count differential / erythrocyte (rbc…
[25] = group: developmental, developmental / developmental malformation / bone / misaligned + systemic / in life observation / body weight / fetal weight + developmental…
[26] = group: maternal, reproductive / reproductive performance / aborted / aborted + reproductive / reproductive performance / postimplantation loss / …
[27] = group: developmental, systemic / in life observation / body weight / fetal weight
[28] = group: maternal, systemic / in life observation / body weight / body weight + systemic / in life observation / body weight / body weight gain + systemic / in…
[29] = systemic / pathology microscopic / skin / acanthosis + systemic / hematology / blood clotting / blood clotting - prothrombin time + systemic…
[30] = group: maternal, reproductive / reproductive performance / resorptions / resorptions
[31] = group: maternal, systemic / in life observation / body weight / body weight gain
[32] = systemic / in life observation / body weight / body weight gain + systemic / in life observation / clinical signs / desquamation + systemic…
[33] = systemic / pathology gross / skin / scabbing
[34] = systemic / pathology microscopic / liver / [other] + systemic / pathology microscopic / liver / hyperplasia
[35] = systemic / pathology microscopic / liver / [other] + systemic / pathology microscopic / liver / hyperplasia + systemic / in life observation…
[36] = systemic / pathology microscopic / liver / hematopoietic cell proliferation granulocytic + systemic / pathology gross / liver / accentuated …
[37] = group: offspring, systemic / in life observation / body weight / offspring (pup) weight + systemic / in life observation / body weight / offspring (pup) …
[38] = group: parental, systemic / pathology microscopic / liver / hyperplasia
[39] = group: parental, systemic / pathology microscopic / liver / hyperplasia + systemic / pathology microscopic / liver / inflammation
[40] = systemic / pathology microscopic / liver / [other]
[41] = systemic / pathology microscopic / liver / [other] + systemic / in life observation / body weight / body weight + systemic / in life …
[42] = systemic / clinical chemistry / alkaline phosphatase (alp/alk) / alkaline phosphatase (alp/alk) + systemic / clinical chemistry / gamma …
[43] = systemic / clinical chemistry / cholesterol / cholesterol

Structure (SMILES): COc1ccc(C(=CC(=O)N2CCOCC2)c2ccc(Cl)cc2)cc1OC [Dimethomorph]
- LOAEL (dog [1]; systemic / organ weight / prostate / absolute + systemic / organ weight / prostate / relative to body weight): 44.6 mg/kg/day
- LEL (dog [1]; [20]): 44.6 mg/kg/day
- NEL (dog [1]; [20]): 14.7 mg/kg/day
- NOAEL (dog [1]; [20]): 14.7 mg/kg/day
- LEL (rat [2]; [21]): 46.3 mg/kg/day
- LOAEL (rat [2]; [21]): 46.3 mg/kg/day
- NEL (rat [2]; [22]): 11.3 mg/kg/day
- NOAEL (rat [2]; [22]): 11.3 mg/kg/day
- LEL (mouse [3]): 977 mg/kg/day
- LOAEL (mouse [3]): 977 mg/kg/day
- NEL (mouse [3]): 96.8 mg/kg/day
- NOAEL (mouse [3]): 96.8 mg/kg/day
- LEL (rat [4]; [23]): 2.9 mg/kg/day
- NEL (rat [4]; [23]): < 2.9 mg/kg/day
- LOAEL (rat [4]; [24]): > 73 mg/kg/day
- NOAEL (rat [4]; [24]): ≥ 73 mg/kg/day
- LEL (dog [5]): 43 mg/kg/day
- LOAEL (dog [5]): 43 mg/kg/day
- NEL (dog [5]): 15 mg/kg/day
- NOAEL (dog [5]): 15 mg/kg/day
- LEL (rat [6]): 57.7 mg/kg/day
- LOAEL (rat [6]): 57.7 mg/kg/day
- NEL (rat [6]): 11.9 mg/kg/day
- NOAEL (rat [6]): 11.9 mg/kg/day

Structure (SMILES): CN(C)C(=S)[S-].[K+] [Potassium dimethyldithiocarbamate]
- LOAEL (rabbit [7]; group: developmental, developmental / developmental malformation / bone / misaligned + systemic / in life observation / body weight / fetal weight): 38 mg/kg/day
- LEL (rabbit [7]; [25]): 38 mg/kg/day
- NEL (rabbit [7]; [25]): 12.8 mg/kg/day
- NOAEL (rabbit [7]; [25]): 12.8 mg/kg/day
- LEL (rabbit [7]; [26]): 38 mg/kg/day
- LOAEL (rabbit [7]; [26]): 38 mg/kg/day
- NEL (rabbit [7]; [26]): 12.8 mg/kg/day
- NOAEL (rabbit [7]; [26]): 12.8 mg/kg/day
- LEL (rat [8]; [27]): 400 mg/kg/day
- LOAEL (rat [8]; [27]): > 400 mg/kg/day
- NEL (rat [8]; [27]): 150 mg/kg/day
- NOAEL (rat [8]; [27]): ≥ 400 mg/kg/day
- LEL (rat [8]; [28]): 150 mg/kg/day
- LOAEL (rat [8]; [28]): 150 mg/kg/day
- NEL (rat [8]; [28]): 25 mg/kg/day
- NOAEL (rat [8]; [28]): 25 mg/kg/day
- LOAEL (rat [9]; systemic / pathology gross / skin / scabbing + systemic / pathology microscopic / skin / acanthosis): 350 mg/kg/day
- NOAEL (rat [9]; systemic / pathology gross / skin / scabbing + systemic / pathology microscopic / skin / acanthosis + systemic / hematology / blood clotting…): 75 mg/kg/day
- LEL (rat [9]; [29]): 75 mg/kg/day
- NEL (rat [9]; [29]): < 75 mg/kg/day
- LEL (rabbit [10]; [27]): 50 mg/kg/day
- LOAEL (rabbit [10]; [27]): 150 mg/kg/day
- NEL (rabbit [10]; [27]): 25 mg/kg/day
- NOAEL (rabbit [10]; [27]): 50 mg/kg/day
- LEL (rabbit [10]; [30]): 25 mg/kg/day
- NEL (rabbit [10]; [30]): < 25 mg/kg/day
- NOAEL (rabbit [10]; group: maternal, reproductive / reproductive performance / resorptions / resorptions + systemic / in life observation / body weight / body weight gain + …): 50 mg/kg/day
- LOAEL (rabbit [10]; [31]): 150 mg/kg/day
- LOAEL (rat [11]; [32]): 750 mg/kg/day
- NOAEL (rat [11]; [32]): 500 mg/kg/day
- LEL (rat [11]; [33]): 100 mg/kg/day
- NEL (rat [11]; [33]): < 100 mg/kg/day
- LEL (rat [12]; [27]): 600 mg/kg/day
- LOAEL (rat [12]; [27]): 600 mg/kg/day
- NEL (rat [12]; [27]): 400 mg/kg/day
- NOAEL (rat [12]; [27]): 400 mg/kg/day
- LEL (rat [12]; [31]): 100 mg/kg/day
- NEL (rat [12]; [31]): < 100 mg/kg/day
- LOAEL (rat [12]; group: maternal, systemic / in life observation / body weight / body weight gain + systemic / in life observation / clinical signs / salivation): 400 mg/kg/day
- NOAEL (rat [12]; group: maternal, systemic / in life observation / body weight / body weight gain + systemic / in life observation / clinical signs / salivation + …): 200 mg/kg/day

Structure (SMILES): COc1cc(OC)nc(Oc2cccc(Oc3nc(OC)cc(OC)n3)c2C(=O)[O-])n1.[Na+] [Bispyribac-sodium]
- LEL (dog [13]; [34]): 100 mg/kg/day
- LOAEL (dog [13]; [34]): 100 mg/kg/day
- NEL (dog [13]; [35]): 10 mg/kg/day
- NOAEL (dog [13]; [35]): 10 mg/kg/day
- LOAEL (mouse [14]; systemic / pathology microscopic / liver / hematopoietic cell proliferation granulocytic + systemic / in life observation / body weight / …): 353 mg/kg/day
- LEL (mouse [14]; [36]): 1.4 mg/kg/day
- NEL (mouse [14]; [36]): < 1.4 mg/kg/day
- NOAEL (mouse [14]; systemic / pathology microscopic / liver / hematopoietic cell proliferation granulocytic + systemic / pathology microscopic / liver / giant …): 14.1 mg/kg/day
- LEL (rat [15]; [37]): 759 mg/kg/day
- LOAEL (rat [15]; [37]): 759 mg/kg/day
- NEL (rat [15]; [37]): 75.7 mg/kg/day
- NOAEL (rat [15]; [37]): 75.7 mg/kg/day
- LEL (rat [15]; [38]): 75.7 mg/kg/day
- LOAEL (rat [15]; [38]): 75.7 mg/kg/day
- NEL (rat [15]; [39]): 1.5 mg/kg/day
- NOAEL (rat [15]; [39]): 1.5 mg/kg/day
- LEL (rat [16]): 194 mg/kg/day
- LOAEL (rat [16]): 194 mg/kg/day
- NEL (rat [16]): 10.9 mg/kg/day
- NOAEL (rat [16]): 10.9 mg/kg/day
- LEL (mouse [17]; [40]): 699 mg/kg/day
- LOAEL (mouse [17]; [40]): 699 mg/kg/day
- NEL (mouse [17]; [41]): 68.6 mg/kg/day
- NOAEL (mouse [17]; [41]): 68.6 mg/kg/day
- LEL (dog [18]): 600 mg/kg/day
- LOAEL (dog [18]): 600 mg/kg/day
- NEL (dog [18]): 100 mg/kg/day
- NOAEL (dog [18]): 100 mg/kg/day
- LOAEL (rat [19]; [42]): 724 mg/kg/day
- NOAEL (rat [19]; [42]): 71.9 mg/kg/day
- LEL (rat [19]; [43]): 8.1 mg/kg/day
- NEL (rat [19]; [43]): < 8.1 mg/kg/day
